Results as given in US9724351B2, “Compounds for the treatment of paramoxyvirus viral infections” (priority 2012, dated 2017).

Assays:
[1] = tested on: Respiratory Syncytial Virus (RSV) long strain (ATCC#VR-26); test: RSV Antiviral Assay (CPE reduction assay); assay type: cell-based; conditions: human respiratory syncytial virus, 120 h; HEp-2 cells infected with RSV long strain, 5 days, CCK-8 readout; bins (Table 2: less than 1 μM; Table 3: equal to or higher than 1 μM and less than 50 μM); read-out: 50% effective concentration (EC50)
Method in brief: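 Cytopathic-effect protection measured after 5 days at 37 °C, 5% CO2 via CCK-8 dehydrogenase readout at 450 nm (630 nm reference), EC50 regressed from mean O.D. Host HEp-2 cells received RSV long strain at 100 TCID50/well; compound 9-point ⅓ series starting 100 μM or 1 μM, 1% DMSO, duplicate wells.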

[2] = Cytotoxicity Determination; assay type: cell-based; conditions: human, HEp-2 cells, without addition of virus, CCK-8 readout, bins (Table 4: greater than 100 μM; Table 5: equal to or less than 100 μM and greater than 10 μM), read-out: 50% cytotoxicity concentration (CC50)
Method in brief: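 CC50 was derived from CCK-8 optical density after a 3-4 h reagent incubation. Before that, cells without virus had been treated for 5 days at 37 °C, 5% CO2 with compound at seven ½-step final concentrations from 100 μM, in duplicate wells.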

SMILES	EC50 [1] [µM]	CC50 at 5 days [2] [µM]
COc1ccc(C(=O)NCC(=O)c2cccc(-c3csc4c(F)cccc34)n2)cc1OC [Compound 1202]	1 to 50	> 100
CCCn1nc(C(=O)CNC(=O)c2ccc(OC)c(OC)c2)nc1-c1csc2c(F)cccc12 [Compound 1205]	1 to 50	10 to 100
COc1ccc(C(=O)NCC(=O)c2nc(-c3csc4c(F)cccc34)cs2)cc1OC [Compound 1206]	1 to 50	10 to 100
COc1cc(C(=O)NCC(=O)c2cccc(-c3csc4c(F)cccc34)n2)ccc1OCCO [Compound 1209]	< 1	10 to 100
COc1ccc(C(=O)NCC(=O)c2csc(-c3csc4c(F)cccc34)n2)cc1OC [Compound 1210]	1 to 50	> 100
COc1ccc(C(=O)NCC(=O)c2cc(C)cc(-c3csc4c(F)cccc34)n2)cc1OC [Compound 1211]	< 1	> 100
COc1cc(C(=O)CNC(=O)c2ccc(OCCO)c(OC)c2)nc(-c2csc3c(F)cccc23)c1 [Compound 1213]	< 1	> 100
COc1cc(C(=O)CNC(=O)c2ccc(OCCN)c(OC)c2)nc(-c2csc3c(F)cccc23)c1 [Compound 1214]	< 1	10 to 100
COc1cc(C(=O)CNC(=O)c2ccc(OCCCO)c(OC)c2)nc(-c2csc3c(F)cccc23)c1 [Compound 1216]	< 1	10 to 100
COc1cc(C(=O)NCC(=O)c2cc(C)cc(-c3csc4c(F)cccc34)n2)ccc1OCCO [Compound 1217]	< 1	> 100
COc1ccc(C(=O)NCC(=O)c2cccc(-c3csc4c(F)cccc34)c2)cc1OC [Compound 1218]	1 to 50	> 100
CNc1cc(C(=O)CNC(=O)c2ccc(OC)c(OC)c2)nc(-c2csc3c(F)cccc23)c1 [Compound 1220]	< 1	> 100
COc1ccc(C(=O)NCC(=O)c2cc(N(C)C)cc(-c3csc4c(F)cccc34)n2)cc1OC [Compound 1221]	< 1	> 100
COc1cc(C(=O)NCC(=O)c2cccc(-c3csc4c(F)cccc34)n2)ccc1OCCCCO [Compound 1223]	1 to 50	10 to 100
COc1cc(C(=O)NCC(=O)c2cccc(-c3csc4c(F)cccc34)n2)ccc1OC1CCOCC1 [Compound 1224]	1 to 50	> 100
COc1cc(C(=O)NCC(=O)c2cccc(-c3csc4c(F)cccc34)n2)ccc1O[C@H]1CC[C@@H](O)CC1 [Compound 1225]	1 to 50	> 100
COc1cc(C(=O)NCC(=O)c2cccc(-c3csc4c(F)cccc34)n2)ccc1O [Compound 1226]	1 to 50	10 to 100
COc1cc(C(=O)NCC(=O)c2cc(C(C)C)cc(-c3csc4c(F)cccc34)n2)ccc1OCCO [Compound 1227]	< 1	10 to 100
COc1ccc(C(=O)NCC(=O)c2cn(C)c(-c3csc4c(F)cccc34)n2)cc1OC [Compound 1228]	1 to 50	10 to 100

SMILES	EC50 [1] [µM]	CC50 at 5 days [2] [µM]
O=C(NCC(=O)c1cccc(-c2csc3c(F)cccc23)n1)c1ccc(OCCO)c(O)c1 [Compound 1230]	1 to 50	10 to 100
COc1cc(C(=O)NCC(=O)c2ccc(OC)c(-c3csc4c(F)cccc34)n2)ccc1OCCN [Compound 1232]	< 1	10 to 100
C=C(C)c1cc(C(=O)CNC(=O)c2ccc(OC)c(OC)c2)nc(-c2csc3c(F)cccc23)c1 [Compound 1237]	< 1	10 to 100
COc1ccc(C(=O)NCC(=O)c2cc(C=C(C)C)cc(-c3csc4c(F)cccc34)n2)cc1OC [Compound 1238]	1 to 50	> 100
COc1ccc(C(=O)NCC(=O)c2cc(CC(C)C)cc(-c3csc4c(F)cccc34)n2)cc1OC [Compound 1239]	1 to 50	> 100
COc1cc(C(=O)NCC(=O)c2c[nH]c(-c3csc4c(F)cccc34)n2)ccc1OCCO [Compound 1240]	1 to 50	> 100
COc1cc(C(=O)NCC(=O)c2cccc(-c3csc4c(F)cccc34)n2)ccc1OCc1nc[nH]n1 [Compound 1242]	1 to 50	10 to 100
C/C=C\c1cc(C(=O)CNC(=O)c2ccc(OC)c(OC)c2)nc(-c2csc3c(F)cccc23)c1 [Compound 1243]	1 to 50	> 100
CCCc1cc(C(=O)CNC(=O)c2ccc(OC)c(OC)c2)nc(-c2csc3c(F)cccc23)c1 [Compound 1244]	< 1	10 to 100
COc1cc(C(=O)NCC(=O)c2cc(N(C)C)cc(-c3csc4c(F)cccc34)n2)ccc1OCCO [Compound 1245]	< 1	> 100
COc1cc(C(=O)NCC(=O)c2cccc(-c3csc4c(F)cccc34)n2)ccc1OCCn1ccnc1 [Compound 1246]	1 to 50	10 to 100
COc1cc(C(=O)NCC(=O)c2cccc(-c3csc4c(F)cccc34)n2)ccc1OCC(N)=O [Compound 1247]	< 1	10 to 100
COc1cc(C(=O)NCC(=O)c2cccc(-c3csc4c(F)cccc34)n2)ccc1OCC(=O)O [Compound 1248]	1 to 50	10 to 100
COc1ccc(C(=O)NCC(=O)c2cc(C3CC3)cc(-c3csc4c(F)cccc34)n2)cc1OC [Compound 1249]	1 to 50	> 100
CCc1cc(C(=O)CNC(=O)c2ccc(OCCO)c(OC)c2)nc(-c2csc3c(F)cccc23)c1 [Compound 1250]	< 1	> 100
COc1cc(C(=O)NCC(=O)c2cccc(-c3csc4c(F)cccc34)n2)ccc1OC1CNC1 [Compound 1251]	1 to 50	> 100
COc1ccc(C(=O)NCC(=O)c2cc(C(C)(C)C)cc(-c3csc4c(F)cccc34)n2)cc1OC [Compound 1252]	< 1	> 100
CNc1ccc(C(=O)CNC(=O)c2ccc(OCCO)c(OC)c2)nc1-c1csc2c(F)cccc12 [Compound 1253]	< 1	> 100
COc1cc(C(=O)NCC(=O)c2cc(CO)cc(-c3csc4c(F)cccc34)n2)ccc1OCCO [Compound 1255]	< 1	10 to 100

SMILES	EC50 [1] [µM]	CC50 at 5 days [2] [µM]
COc1cc(C(=O)NCC(=O)c2cccc(-c3csc4c(F)cccc34)n2)ccc1OC1CC(O)C1 (stereo not drawn) [Compound 1256]	< 1	10 to 100
COC(=O)c1cc(C(=O)CNC(=O)c2ccc(OCCO)c(OC)c2)nc(-c2csc3c(F)cccc23)c1 [Compound 1257]	1 to 50	> 100
COc1cc(C(=O)NCC(=O)c2cc(C(=O)O)cc(-c3csc4c(F)cccc34)n2)ccc1OCCO [Compound 1258]	1 to 50	> 100
COc1ccc(C(=O)CNC(=O)c2ccc(OCCO)cc2)nc1-c1ccc(F)c(Cl)c1 [Compound 1308]	1 to 50	> 100
COc1ccc(C(=O)CNC(=O)c2ccc(OCCO)c(C)c2)nc1-c1ccc(F)c(Cl)c1 [Compound 1309]	< 1	> 100
COCCOc1ccc(C(=O)NCC(=O)c2ccc(OC)c(-c3ccc(F)c(Cl)c3)n2)cc1 [Compound 1311]	1 to 50	> 100
COc1cc(C(=O)NCC(=O)c2ccc(OC)c(-c3ccc(F)c(Cl)c3)n2)ccc1OC1COC1 [Compound 1312]	< 1	> 100
CNCCOc1ccc(C(=O)NCC(=O)c2ccc(OC)c(-c3ccc(F)c(Cl)c3)n2)cc1OC [Compound 1313]	1 to 50	10 to 100
COc1cc(C(=O)NCC(=O)c2ccc(OC)c(-c3ccc(F)c(Cl)c3)n2)ccc1OCCN(C)C [Compound 1314]	1 to 50	10 to 100
COc1cc(C(=O)NCC(=O)c2ccc(OC)c(-c3ccc(F)c(Cl)c3)n2)ccc1OCC(C)N (stereo not drawn) [Compound 1315]	1 to 50	10 to 100
COc1cc(C(=O)NCC(=O)c2ccc(OC)c(-c3ccc(F)c(Cl)c3)n2)ccc1OCC(N)=O [Compound 1316]	< 1	> 100
COCCOc1ccc(C(=O)NCC(=O)c2ccc(OC)c(-c3ccc(F)c(Cl)c3)n2)cc1C [Compound 1317]	1 to 50	> 100
COc1cc(C(=O)NCC(=O)c2ccc(OC)c(-c3ccc(F)c(Cl)c3)n2)ccc1OCC(C)(C)O [Compound 1319]	< 1	> 100
CCN(CC)c1ccc(C(=O)NCC(=O)c2ccc(OC)c(-c3ccc(F)c(Cl)c3)n2)cc1 [Compound 1320]	1 to 50	> 100
CNC(=O)COc1ccc(C(=O)NCC(=O)c2ccc(OC)c(-c3ccc(F)c(Cl)c3)n2)cc1OC [Compound 1321]	1 to 50	10 to 100
COc1cc(C(=O)NCC(=O)c2ccc(OC)c(-c3ccc(F)c(Cl)c3)n2)ccc1OCC(=O)N(C)C [Compound 1322]	< 1	> 100
COCc1ccc(C(=O)NCC(=O)c2ccc(OC)c(-c3ccc(F)c(Cl)c3)n2)cc1OC [Compound 1323]	< 1	10 to 100
COc1cc(C(=O)NCC(=O)c2ccc(OC)c(-c3ccc(F)c(C)c3)n2)ccc1OCCO [Compound 1325]	< 1	> 100
COc1cc(C(=O)NCC(=O)c2ccc(OC)c(-c3ccc(F)c(CF)c3)n2)ccc1OCCO [Compound 1326]	< 1	> 100
